Here are results for eleven compounds from ChEMBL document CHEMBL5244207, “Phenanthrenes: A Promising Group of Plant Secondary Metabolites” (J Nat Prod, 2018).

≈ marks a conversion by molar mass, not a printed value.

Data set [1] deals with Rattus norvegicus. Description: Anxiolytic activity in rat assessed as number of entries in open arm at 5 mg/kg by elevated plus maze test. Format: functional.
For data set [2], the system named is Rattus norvegicus. Description: Anxiolytic activity in rat assessed as head tips at 5 mg/kg by elevated plus maze test. The class given is functional.
The test system of data set [3] is Rattus norvegicus. Description: Anxiolytic activity in rat assessed as increase in time spent in open arm at 5 mg/kg by elevated plus maze test. The class given is functional.
In data set [4] the test system is RAW264.7. Description: Antiinflammatory activity in mouse RAW264.7 cells assessed as reduction in LPS-induced nitric oxide production. Format: functional, cell-based.
A short description of data set [5]: Antioxidant activity assessed as DPPH radical scavenging activity incubated for 30 mins by spectrophotometric analysis. The class given is functional.
A short description of data set [6]: Hemolytic activity in human Neutrophil at 10 uM relative to control. The class given is toxicity, cell-based.
Data set [7] can be described thus: Hemolytic activity in human Neutrophil assessed as hemolysis rate at 10 uM relative to control. The class given is toxicity, cell-based. The following applies: human neutrophils, read-out: Activity.
Data set [8] deals with Staphylococcus aureus. Description: Antibacterial activity against Staphylococcus aureus assessed as inhibition of bacterial growth. Format: functional, organism-based.
Data set [9] relates to Staphylococcus epidermidis. Description: Antibacterial activity against Staphylococcus epidermidis assessed as reduction in bacterial growth. The class given is functional, organism-based.
The subject of data set [10] is SGC-7901. Description: Cytotoxicity against human SGC-7901 cells assessed as reduction in cell viability. The class given is functional, cell-based. Particulars: Homo sapiens, SGC-7901; read-out: IC50.
The subject of data set [11] is HL-60. Description: Cytotoxicity against human HL-60 cells assessed as reduction in cell viability by MTT assay. The class given is functional, cell-based.
The subject of data set [12] is Bel-7402. Description: Cytotoxicity against human Bel-7402 cells assessed as reduction in cell viability. Format: functional, cell-based.
The subject of data set [13] is M14. Description: Cytotoxicity against human M14 cells assessed as reduction in cell viability. The class given is functional, cell-based.
Data set [14] has as its system NCI-H460. Description: Cytotoxicity against human NCI-H460 cells assessed as reduction in cell viability. Format: functional, cell-based.
Data set [15] can be described thus: Antioxidant activity assessed as DPPH radical scavenging activity. Format: functional. Background: DPPH is a stable violet radical that fades when it is reduced.
Data set [16] has as its system SK-OV-3. Description: Cytotoxicity against human SK-OV-3 cells assessed as reduction in cell viability. Format: functional, cell-based.
The test system of data set [17] is Trichophyton rubrum. Description: Antimicrobial activity against Trichophyton rubrum assessed as inhibition zone at 10 ug/disk. Particulars: read-out: IZ. The class given is functional.
Data set [18] deals with BV-2. Description: Antiinflammatory activity in mouse BV2 cells assessed as reduction in LPS-induced nitric oxide production. Format: functional, cell-based.
For data set [19], the system named is C6. Description: Neuroprotective activity in rat C6 cells assessed as NGF secretion level. Format: functional.
The subject of data set [20] is RAW264.7. Description: Antiinflammatory activity against mouse RAW264.7 cells assessed as inhibition of LPS-induced COX2 expression. The class given is functional, cell-based.
Data set [21] deals with RAW264.7. Description: Antiinflammatory activity against mouse RAW264.7 cells assessed as inhibition of LPS-induced COX1 expression. The class given is functional, cell-based.
Data set [22] is described as follows: Toxicity in brine shrimp assessed as lethality. Particulars: artemia salina.
In data set [23] the test system is Trichophyton rubrum. Description: Antimicrobial activity against Trichophyton rubrum assessed as inhibition zone at 5 ug/disk. The class given is functional. Particulars: read-out: IZ.

One may read the IC50 as the concentration needed to halve the response being measured. Turning to `C=Cc1c(C)c(O)cc2ccc3c(C)c(O)ccc3c12`, the Activity in [1] is listed as above 6; in data set [2], above 80. Further, in data set [3], the Time was 56.54 s. For the same compound, the IC50 in [4] (Mus musculus, RAW264.7) is 15.6 µM.

Consider `C=Cc1cc(O)cc2ccc3c(C)c(O)ccc3c12`, for which the IC50 worked out at 1.7 µM in data set [5]; 12.7 µM in data set [4] (Mus musculus, RAW264.7); 10.5 µM in data set [4] (raw264.7). In [6], this compound displayed an Activity of 5.3. Moreover, the hemolysis at 10 µM in data set [7] came to 11.3%.

`COc1cc(O)c2c(c1C)CCc1cc(O)c(C)cc1-2`: the IC50 in data set [8] and in data set [9] was 12.5 µg/mL (≈ 46.2 µM) each time.

Turning to `COC1=CC(=O)C2=C(CCc3cccc(O)c32)C1=O` [EPHEMERANTHOQUINONE B], the IC50 in [10] stood at 2.9 µg/mL (≈ 11.3 µM); in data set [11], 3 µM; in data set [12], 1.8 µg/mL (≈ 7.02 µM).

`COC1=CC(=O)c2c(ccc3cccc(O)c23)C1=O`: the IC50 was 1.5 µM in data set [13] and 5 µM in [14].

As to `COc1cc(O)c2c(c1)CCc1cc(O)c(-c3c(OC)cc(O)c4c3CCc3c-4ccc(O)c3-c3c(OC)cc(O)c4c3CCc3cc(O)ccc3-4)cc1-2`, the half-maximal inhibitory concentration (IC50) is 4.8 µg/mL (≈ 6.64 µM) in data set [15] and 41.5 µg/mL (≈ 57.4 µM) in data set [16].

On to `COc1cc2c(c(OC)c1O)-c1c(ccc(O)c1O)CC2`, for which the zone of inhibition at 10 µg/disc in data set [17] worked out at 12.7 mm.

Take `COc1cc2c(ccc3cc(OC)c(O)c(OC)c32)cc1O`: the IC50 in data set [18] turned out to be 19.6 µM. For the same compound, the Activity in data set [19] came out at 162.4%.

With `COC1=CC(=O)c2c(ccc3cc(OC)c(O)cc23)C1=O`, the IC50 came to 0.27 µM in [20] and 0.08 µM in [21].

In general, LC50 refers to the concentration that kills 50% of the test population. `O=P1(N(CCCl)CCCl)NCCCO1` (stereo not given) [CYCLOPHOSPHAMIDE ANHYDROUS]: the LC50 in data set [22] was found to be 16.4 µg/mL (≈ 62.8 µM).

For `CC(=O)N1CCN(c2ccc(OCC3COC(Cn4ccnc4)(c4ccc(Cl)cc4Cl)O3)cc2)CC1` (stereo not given) [KETOCONAZOLE], the zone of inhibition at 5 µg/disc in data set [23] worked out at 15.7 mm.
